US20140094424A1, “MICROBICIDAL COMPOSITIONS AND METHODS OF PRODUCTION USE THEREOF” (priority 2011, published 2014)

What was measured:
[1] = system: Gram positive rods (S); test: MBC (minimum bactericidal concentration) test in Wash NEXT reagent; format: cell-based
Method: (§1) The stock organisms were thawed and subbed prior to beginning the MBC test. Molds were subbed to SDA plates one week before, and the bacteria were subbed to TAT agar plates 24 hours prior to the start of the test. All plates were incubated at 32 degrees C.
(§2) Each bacterial organism was inoculated into 40 ml sterile saline in a centrifuge tube to create a density of MacFarland #1. Two serial dilutions of 1:100 were then made, resulting in 10^−2 and 10^−4 concentrations. Each dilution was vortexed before it was sampled, and sterile Eppendorf pipette tips were used to make each transfer. The 10^−4 dilution was spiral plated to yield the initial inoculum concentration.
(§3) MBC trays were set up with the prepared test reagent. Using a Matrix pipettor, 100 μl aliquots of reagent were distributed into the wells, diluting the amount of preservative from 100% to 10% increments, using unpreserved reagent as the diluent. In one row, 100% non-preserved reagent acted as a positive control and served as a benchmark for a full mat of growth. In well #12H, 100 μl unpreserved reagent was pipetted, and this well was not inoculated with organisms, as it served as the negative control. Once all of the trays were prepared, the prepared bacteria/mold suspensions were poured into the MBC inoculating trays. These were placed onto the reagent trays, and 0.01 ml inoculum was introduced into the 100 μl of reagent in each well.
(§4) This was done by dipping a sterile cotton swab into each well, and absorbing all of the liquid in the well. The swab was rolled onto a TAT agar plate ensuring that the entire swab touches the agar. Plates ware incubated at 32 degrees C. for 48 hours to 7 days, depending on the organism. Observations for growth were performed by a scoring matrix using + for a full mat, +/− for some growth, a numerical value for an actual colony count, and—for no growth.
(§5) Below are tables that contain the data obtained in Example 1. The MBC test is scored by (+) indicating a full grown mat of organisms, equivalent to the organisms in the unpreserved reagent. (+/−) indicates there is some kill evident disturbing that mat or bringing the quantities down to an almost countable level. An actual number is the actual number of colonies growing at that concentration of preservative. (−) indicates no growth found. The MBC trays were stored at room temperature for the entire test.
(§6) The materials and methods and analysis of the MBC test were the same as in Example 1.

[2] = system: Pseudomonas putida (K); test: as above; format: cell-based
Method: as §1, §2, §3, §4, §5, §6

Measured: MBC test growth score

gentamicin
−: [1]; 10% preservative, 8 hour | [1]; 10% preservative, 24 hour | [1]; 10% preservative, 48 hour | [1]; 10% preservative, 72 hour | [1]; 20% preservative, 8 hour | [1]; 20% preservative, 24 hour | [1]; 20% preservative, 48 hour | [1]; 20% preservative, 72 hour | [1]; 30% preservative, 8 hour | [1]; 30% preservative, 24 hour | [1]; 30% preservative, 48 hour | [1]; 30% preservative, 72 hour | [1]; 40% preservative, 8 hour | [1]; 40% preservative, 24 hour | [1]; 40% preservative, 48 hour | [1]; 40% preservative, 72 hour | [1]; 50% preservative, 8 hour | [1]; 50% preservative, 24 hour | [1]; 50% preservative, 48 hour | [1]; 50% preservative, 72 hour | [1]; 60% preservative, 8 hour | [1]; 60% preservative, 24 hour | [1]; 60% preservative, 48 hour | [1]; 60% preservative, 72 hour | [1]; 70% preservative, 8 hour | [1]; 70% preservative, 24 hour | [1]; 70% preservative, 48 hour | [1]; 70% preservative, 72 hour | [1]; 80% preservative, 8 hour | [1]; 80% preservative, 24 hour | [1]; 80% preservative, 48 hour | [1]; 80% preservative, 72 hour | [1]; 90% preservative, 8 hour | [1]; 90% preservative, 24 hour | [1]; 90% preservative, 48 hour | [1]; 90% preservative, 72 hour | [1]; 100% preservative, 8 hour | [1]; 100% preservative, 24 hour | [1]; 100% preservative, 48 hour | [1]; 100% preservative, 72 hour | [2]; 10% preservative, 8 hour | [2]; 10% preservative, 24 hour | [2]; 10% preservative, 48 hour | [2]; 10% preservative, 72 hour | [2]; 20% preservative, 8 hour | [2]; 20% preservative, 24 hour | [2]; 20% preservative, 48 hour | [2]; 20% preservative, 72 hour | [2]; 30% preservative, 8 hour | [2]; 30% preservative, 24 hour | [2]; 30% preservative, 48 hour | [2]; 30% preservative, 72 hour | [2]; 40% preservative, 8 hour | [2]; 40% preservative, 24 hour | [2]; 40% preservative, 48 hour | [2]; 40% preservative, 72 hour | [2]; 50% preservative, 8 hour | [2]; 50% preservative, 24 hour | [2]; 50% preservative, 48 hour | [2]; 50% preservative, 72 hour | [2]; 60% preservative, 8 hour | [2]; 60% preservative, 24 hour | [2]; 60% preservative, 48 hour | [2]; 60% preservative, 72 hour | [2]; 70% preservative, 8 hour | [2]; 70% preservative, 24 hour | [2]; 70% preservative, 48 hour | [2]; 70% preservative, 72 hour | [2]; 80% preservative, 8 hour | [2]; 80% preservative, 24 hour | [2]; 80% preservative, 48 hour | [2]; 80% preservative, 72 hour | [2]; 90% preservative, 8 hour | [2]; 90% preservative, 24 hour | [2]; 90% preservative, 48 hour | [2]; 90% preservative, 72 hour | [2]; 100% preservative, 8 hour | [2]; 100% preservative, 24 hour | [2]; 100% preservative, 48 hour | [2]; 100% preservative, 72 hour
